We go through 13 compounds from PubChem BioAssay AID1845202 (Molecular Pharmacology Branch, DTP, NCI, 2023).

This experiment has as its system DMS 114 tumor spheroids, viability % test/control. Description: Anticancer human tumor DMS 114 cell line growth inhibition.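 As to all read-outs here: spheroids exposed to compounds for 7 days before read-out.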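 As to viability, T/C: luminescence used as a proxy for viable cells; 100% = DMSO vehicle control viability.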 To be noted: spheroids with HUVEC and MSC; for viability, T/C: stronger effect = lower value. The text has this:
Multicellular complex tumor spheroid response to DNA repair inhibitors in combination with DNA-damaging drugs
This study explores the anticancer activities of DNA-damaging drugs and inhibitors of DNA damage repair, both as single agents and in combinations. Complex tumor spheroids comprised of malignant cells, endothelial cells and mesenchymal stem cells served as an in vitro model for human solid tumors. This model system incorporates physiologically relevant features and patient-derived or established malignant cell lines with clinically relevant genetic alterations from many tumor types. Twenty-six patient-derived or established malignant cell lines were evaluated representing sarcoma, melanoma, small cell lung cancer (SCLC), non-small cell lung cancer (NSCLC), as well as bladder, ovarian and pancreatic cancers. The concentration ranges selected for each drug and investigational agent were based upon clinically achievable concentrations if the clinical Cmax of the agent was known.
Compounds. The drugs and compounds olaparib (NSC753686), talazoparib (NSC767125), berzosertib (NSC777718), elimusertib (NSC800525), nedisertib (NSC802822), VX-984 (NSC792969), AZD-1390 (NSC803789), temozolomide (NSC362856), topotecan (NSC609699), trabectedin (NSC813783), staurosporine (NSC755774), and gemcitabine (NSC613327) were obtained from the National Cancer Institute (NCI) Developmental Therapeutics Program Chemical Repository. The FDA-approved anticancer drug set is available from the Developmental Therapeutics Program at https://dtp.cancer.gov/organization/dscb/obtaining/available_plates.htm. […] The stock solutions were prepared in dimethyl sulfoxide (DMSO, Sigma-Aldrich, St. Louis, MO, cat. D2650) at 400-fold the tested concentration and stored at -70 degrees C. Prior to their use, the stock solutions were diluted in fresh medium and the final DMSO concentration in the assay was 0.25% (v/v). All drugs and investigational agents were tested over a range starting from a high concentration at or near the clinical Cmax and decreasing in half-log increments. If the clinical Cmax for an agent had not been determined, the highest concentration tested was 10 microM.
Cell Lines. The patient-derived cancer cell (PDC) lines: 156681-154-R-J1-PDC, 283228-195-R-J1-PDC, 287954-098-R-J1-PDC, 292921-168-R-J2-PDC, 349418-098-R-PDC, 425362-245-T-J1-PDC, 556581-035-R-J1-PDC, and BL0293-F563-PDC were received from the NCI Patient-Derived Models Repository (PDMR, https://pdmr.cancer.gov). The established cell lines HS-SY-2 (RRID:CVCL_8719), MPNST, and SYO-1 (RRID:CVCL_7146) were obtained from the Sloan Kettering Institute. The alveolar soft parts sarcoma cell line ASPS-1 (RRID:CVCL_S738) was established at the NCI and grown from internal seed stocks. The following established cell lines were purchased from the American Type Culture Collection (ATCC, Manassas, VA): G-401 (ATCC, cat. CRL-1441, RRID:CVCL_0270), SW982 (ATCC, cat. HTB-93, RRID:CVCL_1734), VA-ES-BJ (ATCC, cat. CRL-2138, RRID:CVCL_1785), NCI-H719 (ATCC, cat. CRL-5837, RRID:CVCL_1582), NCI-H196 (ATCC, cat. CRL-5823, RRID:CVCL_1509), NCI-H841 (ATCC, cat. CRL-5845, RRID:CVCL_1595), NCI-H1618 (ATCC, cat. CRL-5879, RRID:CVCL_1480), NCI-H1876 (ATCC, cat. CRL-5902, RRID:CVCL_1503), DMS 114 (ATCC, cat. CRL-2066; RRID:CVCL_1174), NCI-H211 (ATCC, cat. CRL-5824; RRID:CVCL_1529), and SW 1271 (ATCC, cat. CRL-2177, RRID:CVCL_1716). The small cell lung cancer cell line COR-L88 was purchased from Sigma-Aldrich (cat. 92031917-1VL, RRID:CVCL_1141). The non-small cell lung cancer cell lines NCI-H226 (RRID:CVCL_1544) and NCI-H322M (RRID:CVCL_1557) were established at the NCI and grown from internal seed stocks. Pooled donor human umbilical vein endothelial cells (HUVEC, Lonza, cat. CC-2519) and human mesenchymal stem cells (hMSC, Lonza, cat. PT-2501) were purchased from Lonza (Walkersville, MD).
Cell Culture. All cells were maintained in an incubator at 37 degrees C and 5% CO2 with 95% humidity. […]

Setting [1] is: compound alone, run of 10/17/2019.
The mark [2] stands for this setting: compound alone, run of 10/25/2019.

“And” between values parts separate entries of the source, which are not always exact repeats. Equal values may be shown once.

Usually viability, T/C stands for the ratio of treated to control. What is called IC50 is the concentration that inhibits the measured activity by half. For the compound `CC(C)n1c(=O)n(C)c2cnc3cc(F)c(-c4ccc(OCCCN5CCCCC5)nc4)cc3c21`, the viability, T/C reads like this: (compound 0.0316 µM) 106% and 99.8% and 105%; (compound 0.1 µM) 104% and 103% and 107%; (compound 0.316 µM) 101% and 97.2% and 106%; (compound 1 µM) 97.8% and 102% and 93.4%; (compound 3.16 µM) 70.1% and 88% and 73.8%; (compound 10 µM) 22.5% and 34.4% and 22.6%. Moreover, where the note is “curve of compound”, the IC50 is 5.15 µM and 7.21 µM and 5.37 µM.
Take `CC1COCCN1c1cc(-c2ccnn2C)c2ccnc(-c3ccn[nH]3)c2n1` (configuration not stated): the viability, T/C is, setting by setting: (compound 0.0316 µM) 53.3% and 52% and 78.1%; (compound 0.1 µM) 33.3% and 43.1% and 47.9%; (compound 0.316 µM) 19% and 25.5% and 22.5%; (compound 1 µM) 12% and 12.8% and 12.6%; (compound 3.16 µM) 9.85% and 10.8% and 9.54%; (compound 10 µM) 10.2% and 11.9% and 8.81%. For the same compound, the IC50 (curve of compound) was 0.0382 µM and 0.0407 µM and 0.0922 µM.
Turning to `CC[C@@]1(O)C(=O)OCc2c1cc1n(c2=O)Cc2cc3c(CN(C)C)c(O)ccc3nc2-1`, the viability, T/C is 107% [middle of 10 runs] (compound 0.003 µM), 33.1% [middle of 10 runs] (compound 0.03 µM), 16.2% [middle of 10 runs] (compound 0.0949 µM) and 10.4% [middle of 10 runs] (compound 0.3 µM). Also, the concentration for half-maximal inhibition (IC50) by setting is: under setting [1], 22.3 nM [middle of 5 runs]; under setting [2], 20.2 nM [middle of 5 runs].
With `CNCc1ccc(-c2cc(-c3nc(-c4ccc(S(=O)(=O)C(C)C)cc4)cnc3N)on2)cc1`, the viability, T/C runs as follows: (compound 0.00949 µM) 93% and 107% and 91.3%; (compound 0.03 µM) 96.8% and 102% and 94%; (compound 0.0949 µM) 88.2% and 77.7% and 80.8%; (compound 0.3 µM) 34.7% and 25.9% and 27.3%; (compound 0.949 µM) 3.27% and 5.9% and 2.77%; (compound 3 µM) 0.32% and 0.23% and 0.26%. In addition, the IC50 (curve of compound) was 0.216 µM and 0.176 µM and 0.184 µM.
With `COc1cc(C)[nH]c(=O)c1CN1CCc2c(Cl)cc(C(OC)C3COC3)c(Cl)c2C1=O` (configuration not stated), the viability, T/C (compound 0.0316 µM) is 99.2% and 104% and 106%; the viability, T/C (compound 0.1 µM) was 92.3% and 96.3% and 96.5%; the viability, T/C (compound 0.316 µM) was 84.5% and 87.3% and 86.1%; the viability, T/C (compound 1 µM) was 78% and 79.3% and 78.8%; the viability, T/C (compound 3.16 µM) was 72.8% and 77.8% and 73.3%; the viability, T/C (compound 10 µM) is 72.2% and 72.6% and 72.4%. For the same compound, the IC50 (curve of compound) is > 10 µM.
`COc1cc2c(cc1O)CCNC21CSC2c3c(OC(C)=O)c(C)c4c(c3C(COC1=O)N1C(O)C3Cc5cc(C)c(OC)c(O)c5C(C21)N3C)OCO4` (configuration not stated): the viability, T/C is, setting by setting: (compound 30 pM) 102% [middle of 10 runs]; (compound 94.9 pM) 102% [middle of 10 runs]; (compound 0.0003 µM) 41.4% [middle of 10 runs]; (compound 0.000949 µM) 4.04% [middle of 10 runs]; (compound 0.003 µM) 0.21% [middle of 7 runs]. In addition, the half-maximal inhibitory concentration (IC50) under setting [2] was 0.253 nM [middle of 10 runs].
Regarding `COc1ccc([C@@H](O)c2cc(-c3ncnc4cc(N5CCOCC5)ccc34)c(F)cc2Cl)nn1`, the viability, T/C is 98.5% and 111% and 96.3% (compound 0.0316 µM); 100% and 104% and 105% (compound 0.1 µM); 98% and 103% and 108% (compound 0.316 µM); 98.8% and 121% and 100% (compound 1 µM); 81.9% and 95.8% and 92.8% (compound 3.16 µM); 40.5% and 46.1% and 35.6% (compound 10 µM). Moreover, the half-maximal inhibitory concentration (IC50) (curve of compound) is 7.8 µM and 9.15 µM and 7.49 µM.
Consider `Cc1cc(C)c(CNC(=O)c2cc(-c3ccc(CN4CCOCC4)cc3)cc3c2cnn3C2CCCC2)c(=O)[nH]1`, for which the viability, T/C was 99.2% and 94.7% and 96.4% (compound 0.0316 µM); 104% and 96.8% and 102% (compound 0.1 µM); 103% and 113% and 108% (compound 0.316 µM); 116% and 115% (2×) (compound 1 µM); 106% and 110% and 103% (compound 3.16 µM); 62.3% and 78% and 72.8% (compound 10 µM). Also, for the setting “curve of compound”, the IC50 is > 10 µM.
For `Cc1sc2c(c1C)C(c1ccc(Cl)cc1)=NC(CC(=O)Nc1ccc(O)cc1)c1nnc(C)n1-2` (configuration not stated), the viability, T/C is 99% and 105% and 95% (compound 0.00949 µM); 111% and 108% and 107% (compound 0.03 µM); 69.5% and 72.7% and 55.8% (compound 0.0949 µM); 27.6% and 24.4% and 18.9% (compound 0.3 µM); 11.3% and 9.42% and 7.59% (compound 0.949 µM); 7.11% and 4.64% and 4.8% (compound 3 µM). The IC50 (curve of compound) is 0.164 µM and 0.116 µM.
For `Cn1ncnc1[C@H]1c2n[nH]c(=O)c3cc(F)cc(c23)N[C@@H]1c1ccc(F)cc1`, the viability, T/C (compound 0.00949 µM) was 117% and 110% and 92%; the viability, T/C (compound 0.03 µM) is 94.9% and 113% and 95.8%; the viability, T/C (compound 0.0949 µM) was 91.3% and 103% and 87.2%; the viability, T/C (compound 0.3 µM) was 72.8% and 101% and 65.3%; the viability, T/C (compound 0.949 µM) is 34.5% and 47.5% and 32.3%; the viability, T/C (compound 3 µM) is 9.35% and 15.3% and 10.1%. In addition, the IC50 (curve of compound) was 0.611 µM and 0.901 µM and 0.514 µM.
Regarding `Cn1nnc2c(C(N)=O)ncn2c1=O`, the viability, T/C by setting is: (compound 1 µM) 101% [middle of 10 runs]; (compound 3.16 µM) 101% [middle of 9 runs]; (compound 10 µM) 106% [middle of 10 runs]; (compound 31.6 µM) 106% [middle of 10 runs]. In addition, the IC50 under setting [1] is > 100 µM.
Consider `O=C(c1cc(Cc2n[nH]c(=O)c3ccccc23)ccc1F)N1CCN(C(=O)C2CC2)CC1`, for which the viability, T/C by setting is: (compound 0.0949 µM) 105% and 104% and 97.3%; (compound 0.3 µM) 104% (2×) and 102%; (compound 0.949 µM) 107% and 98.7% and 106%; (compound 3 µM) 109% and 107% and 102%; (compound 9.49 µM) 70.7% and 53.2% and 55.8%; (compound 30 µM) 48.5% and 29.6% and 26.8%. Moreover, the IC50 (curve of compound) is 27.7 µM and 11.1 µM and 12 µM.
For `[2H]c1nc(C)nc([2H])c1-c1cc(NC[C@@H](C)c2cccc3c(C(=O)NC)ccnc23)ncn1`, the viability, T/C (compound 0.0316 µM) is 103% and 104% (2×); the viability, T/C (compound 0.1 µM) was 109% and 103% and 111%; the viability, T/C (compound 0.316 µM) is 105% and 99.8% and 113%; the viability, T/C (compound 1 µM) was 105% and 103% and 96.1%; the viability, T/C (compound 3.16 µM) was 101% and 98% and 103%; the viability, T/C (compound 10 µM) was 96.1% and 93.5% and 87.6%. Where the note is “curve of compound”, the half-maximal inhibitory concentration (IC50) was > 10 µM.
